Bounds are passed on as bounds.

One assay deals with PLK1 (Homo sapiens, UniProt P53350). Description: PLK1 protein kinase assay (CDC25C phosphorylation, [γ-32P]-ATP). In kind it is biochemical. As to conditions: Table 1; read-out: PLK1 IC50.
Chain of PLK1 (P53350 whole entry): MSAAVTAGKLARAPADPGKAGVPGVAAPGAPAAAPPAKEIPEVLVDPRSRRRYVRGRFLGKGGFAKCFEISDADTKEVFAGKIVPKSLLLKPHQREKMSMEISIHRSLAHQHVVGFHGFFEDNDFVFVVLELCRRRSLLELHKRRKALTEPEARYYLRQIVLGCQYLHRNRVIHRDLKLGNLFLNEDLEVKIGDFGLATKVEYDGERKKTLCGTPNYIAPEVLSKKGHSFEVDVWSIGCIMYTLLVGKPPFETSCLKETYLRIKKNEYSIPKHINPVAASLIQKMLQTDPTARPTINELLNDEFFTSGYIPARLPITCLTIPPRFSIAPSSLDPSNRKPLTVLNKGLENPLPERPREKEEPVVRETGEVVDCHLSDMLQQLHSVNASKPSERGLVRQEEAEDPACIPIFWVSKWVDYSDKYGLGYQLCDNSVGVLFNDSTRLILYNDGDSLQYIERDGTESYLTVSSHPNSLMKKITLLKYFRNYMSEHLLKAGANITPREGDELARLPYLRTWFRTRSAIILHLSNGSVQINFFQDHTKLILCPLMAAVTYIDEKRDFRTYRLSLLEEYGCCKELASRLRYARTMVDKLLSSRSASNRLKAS
Consider `COc1cc(C(=O)NC2CCN(C)CC2)ccc1Nc1ncc2c(n1)N(Cc1ccccc1)CCC(=O)N2C` [compound 29, 4-(9-Benzyl-5-methyl-6-oxo-6,7,8,9-tetrahydro-5H-pyrimido[4,5-b][1,4]diazepin-2-ylamino)-3-methoxy-N-(1-methyl-piperidin-4-yl)-benzamide], for which the IC50 is below 10000 nM. Still for that read-out and setting: in the case of `COc1cc(C(=O)NC2CCN(C)CC2)ccc1Nc1ncc2c(n1)N(C1CCCC1)C(C(C)C)CC(=O)N2` (stereo not shown) [compound 19, 4-(9-Cyclopentyl-8-isopropyl-6-oxo-6,7,8,9-tetrahydro-5H-pyrimido[4,5-b][1,4]diazepin-2-ylamino)-3-methoxy-N-(1-methyl-piperidin-4-yl)-benzamide] it was below 10000 nM. Regarding `COc1cc(C(=O)NC2CCN(C)CC2)ccc1Nc1ncc2c(n1)N(C1CCCC1)CC1(CC1)C(=O)N2C` [compound 31], the IC50 was below 100 nM.

Staying with this assay, now noted: Table 2, PLK1 IC50; class symbols; read-out: PLK1 IC50.
Take `COc1cc(C(=O)N[C@H]2CN3CCC2CC3)ccc1Nc1ncc2c(n1)N(C1CCCC1)CC1(CC1)C(=O)N2C` [Compound 347, (R)-4-(9′-cyclopentyl-5′-methyl-6′-oxo-5′,6′,8′,9′-tetrahydrospiro[cyclopropane-1,7′-pyrimido[4,5-b][1,4]diazepine]-2′-ylamino)-3-methoxy-N-(quinuclidin-3-yl)benzamide]: the IC50 was below 100 nM. In the case of `COc1cc(C(=O)NC2CCN(C)CC2)ccc1Nc1ncc2c(n1)N(CC1CC1)CC(C)(C)C(=O)N2C` [compound 276, 4-(9-Cyclopropylmethyl-5,7,7-trimethyl-6-oxo-6,7,8,9-tetrahydro-5H-pyrimido[4,5-b][1,4]diazepin-2-ylamino)-3-methoxy-N-(1-methyl-piperidin-4-yl)-benzamide], the half-maximal inhibitory concentration (IC50) was below 1000 nM. Still for that read-out and setting: in the case of `COc1cc(C(=O)NCCCN(C)C)ccc1Nc1ncc2c(n1)N(C1CCCC1)CC1(CC1)C(=O)N2C` [compound 183] it was below 100 nM; in that of `COc1cc(C(=O)NCC(=O)N2CCN(C(C)C)CC2)ccc1Nc1ncc2c(n1)N(C1CCCC1)CC1(CC1)C(=O)N2C` [compound 321], below 1000 nM; in that of `COc1ccc(C(=O)NCCCCO)cc1Nc1ncc2c(n1)N(C1CCCC1)CCC(=O)N2C` [compound 272, 3-(9-Cyclopentyl-5-methyl-6-oxo-6,7,8,9-tetrahydro-5H-pyrimido[4,5-b][1,4]diazepin-2-ylamino)-N-(4-hydroxy-butyl)-4-methoxy-benzamide], below 1000 nM. As for `COc1cc(C(=O)NN2CCN(C)CC2)ccc1Nc1ncc2c(n1)N(C1CCCC1)CC1(CC1)C(=O)N2C` [Compound 254, 4-(9′-cyclopentyl-5′-methyl-6′-oxo-5′,6′,8′,9′-tetrahydrospiro[cyclopropane-1,7′-pyrimido[4,5-b][1,4]diazepine]-2′-ylamino)-3-methoxy-N-(4-methylpiperazin-1-yl)benzamide], the IC50 is below 100 nM. Turning to `COc1ccc(N2CCC(=O)N(C)c3cnc(Nc4ccc(C(=O)NC5CCN(C)CC5)cc4OC)nc32)cc1` [compound 314], the half-maximal inhibitory concentration (IC50) was below 1000 nM. In the case of `COc1cc(C(=O)NN2CCN(C)CC2)ccc1Nc1ncc2c(n1)N(C1CCCC1)CC1(CCC1)C(=O)N2C` [Compound 221, 4-(9′-cyclopentyl-5′-methyl-6′-oxo-5′,6′,8′,9′-tetrahydrospiro[cyclobutane-1,7′-pyrimido[4,5-b][1,4]diazepine]-2′-ylamino)-3-methoxy-N-(4-methylpiperazin-1-yl)benzamide], the concentration for half-maximal inhibition (IC50) is below 100 nM. As for `COc1cc(C(=O)NC2CCN(CC3CC3)CC2)ccc1Nc1ncc2c(n1)N(C1CCCC1)CCC(=O)N2C` [compound 238, 4-(9-Cyclopentyl-5-methyl-6-oxo-6,7,8,9-tetrahydro-5H-pyrimido[4,5-b][1,4]diazepin-2-ylamino)-N-(1-cyclopropylmethyl-piperidin-4-yl)-3-methoxy-benzamide], the IC50 is below 100 nM.

On to `COc1cc(C(=O)NC2CN3CCC2CC3)ccc1Nc1ncc2c(n1)N(CC1CC1)CCC(=O)N2C` (stereo not shown) [compound 243, N-(1-Aza-bicyclo[2.2.2]oct-3-yl)-4-(9-cyclopropylmethyl-5-methyl-6-oxo-6,7,8,9-tetrahydro-5H-pyrimido[4,5-b][1,4]diazepin-2-ylamino)-3-methoxy-benzamide], for which the 50% inhibitory concentration (IC50) is below 1000 nM. On to `COc1cc(C(=O)NC2CCN(C)CC2)ccc1Nc1ncc2c(n1)N(CCC(=O)NCCO)CCC(=O)N2C` [compound 223, 4-{9-[2-(2-Hydroxy-ethylcarbamoyl)-ethyl]-5-methyl-6-oxo-6,7,8,9-tetrahydro-5H-pyrimido[4,5-b][1,4]diazepin-2-ylamino}-3-methoxy-N-(1-methyl-piperidin-4-yl)-benzamide], for which the half-inhibitory concentration (IC50) is below 10000 nM.

For the molecule `COc1cc(C(=O)NCC(C)(C)CN(C)C)ccc1Nc1ncc2c(n1)N(C1CCCC1)CC1(CC1)C(=O)N2C` [compound 256, 4-(9-Cyclopentyl-5-methyl-6-oxo-6,7,8,9-tetrahydro-5H-pyrimido[4,5-b][1,4]diazepin-3,1′-cyclopropane-2-ylamino)-N-(3-dimethylamino-2,2-dimethyl-propyl)-3-methoxy-benzamide], the half-maximal inhibitory concentration (IC50) was below 100 nM. Regarding `COc1ccc(Nc2ncc3c(n2)N(C2CCCC2)CCC(=O)N3C)c(OC)c1` [compound 71, 9-Cyclopentyl-2-(2,4-dimethoxy-phenylamino)-5-methyl-5,7,8,9-tetrahydro-pyrimido[4,5-b][1,4]diazepin-6-one], the IC50 is below 100 nM. `COc1ccc(C(=O)NC(C)(C)CN2CCCCC2)cc1Nc1ncc2c(n1)N(C1CCCC1)CCC(=O)N2C` [compound 234, 3-(9-Cyclopentyl-5-methyl-6-oxo-6,7,8,9-tetrahydro-5H-pyrimido[4,5-b][1,4]diazepin-2-ylamino)-N-(1,1-dimethyl-2-piperidin-1-yl-ethyl)-4-methoxy-benzamide]: the half-inhibitory concentration (IC50) was below 10000 nM.

With `CCC(CO)NC(=O)c1ccc(Nc2ncc3c(n2)N(C2CCCC2)CCC(=O)N3C)c(OC)c1` (stereo not shown) [compound 153, 4-(9-Cyclopentyl-5-methyl-6-oxo-6,7,8,9-tetrahydro-5H-pyrimido[4,5-b][1,4]diazepin-2-ylamino)-N-(1-hydroxymethyl-propyl)-3-methoxy-benzamide], the IC50 is below 1000 nM. For `COc1cc(C(=O)O)ccc1Nc1ncc2c(n1)N(C1CCCC1)CC1(CC1)C(=O)N2C` [compound 239, 4-(9-Cyclopentyl-5-methyl-6-oxo-6,7,8,9-tetrahydro-5H-pyrimido[4,5-b][1,4]diazepin-3,1′-cyclopropane-2-ylamino)-3-methoxy-benzoic acid], the 50% inhibitory concentration (IC50) was below 1000 nM.

Staying with this assay, now noted: Table 3; read-out: PLK1 IC50.
For `COc1cc(C(=O)N[C@H]2CN3CCC2CC3)ccc1Nc1ncc2c(n1)N(C1CCCC1)CC1(CC1)C(=O)N2C` [Compound 347, (R)-4-(9′-cyclopentyl-5′-methyl-6′-oxo-5′,6′,8′,9′-tetrahydrospiro[cyclopropane-1,7′-pyrimido[4,5-b][1,4]diazepine]-2′-ylamino)-3-methoxy-N-(quinuclidin-3-yl)benzamide], the half-maximal inhibitory concentration (IC50) was below 100 nM. Regarding `COc1cc(C(=O)NN2CCN(C)CC2)ccc1Nc1ncc2c(n1)N(C1CCCC1)CC1(CC1)C(=O)N2C` [Compound 254, 4-(9′-cyclopentyl-5′-methyl-6′-oxo-5′,6′,8′,9′-tetrahydrospiro[cyclopropane-1,7′-pyrimido[4,5-b][1,4]diazepine]-2′-ylamino)-3-methoxy-N-(4-methylpiperazin-1-yl)benzamide], the IC50 was below 100 nM. Still for that read-out and setting: in the case of `COc1cc(C(=O)NN2CCN(C)CC2)ccc1Nc1ncc2c(n1)N(C1CCCC1)CC1(CCC1)C(=O)N2C` [Compound 221, 4-(9′-cyclopentyl-5′-methyl-6′-oxo-5′,6′,8′,9′-tetrahydrospiro[cyclobutane-1,7′-pyrimido[4,5-b][1,4]diazepine]-2′-ylamino)-3-methoxy-N-(4-methylpiperazin-1-yl)benzamide] it was below 100 nM. Turning to `COc1cc(C(=O)N[C@H]2CC[C@H](N3CCN(CC4CC4)CC3)CC2)ccc1Nc1ncc2c(n1)N(C1CCCC1)CCC(=O)N2C` [Compound 378, 4-(9-cyclopentyl-5-methyl-6-oxo-6,7,8,9-tetrahydro-5H-pyrimido[4,5-b][1,4]diazepin-2-ylamino)-N-((trans)-4-(4-(cyclopropylmethyl)piperazin-1-yl)cyclohexyl)-3-methoxybenzamide], the IC50 was below 100 nM. Consider `CN1CCN(NC(=O)c2ccc(Nc3ncc4c(n3)N(C3CCCC3)CC3(CC3)C(=O)N4C)c(F)c2)CC1` [Compound 374, 4-(9′-Cyclopentyl-5′-methyl-6′-oxo-5′,6′,8′,9′-tetrahydrospiro[cyclopropane-1,7′-pyrimido[4,5-b][1,4]diazepine]-2′-ylamino)-3-fluoro-N-(4-methylpiperazin-1-yl)benzamide], for which the concentration for half-maximal inhibition (IC50) was below 100 nM.

The same assay, now with this note: Table 6.
As for `COc1cc(C(=O)NN2CCN(C)CC2)ccc1Nc1ncc2c(n1)N(C1CCCC1)CC1(CC1)C(=O)N2C` [Compound 254, 4-(9′-cyclopentyl-5′-methyl-6′-oxo-5′,6′,8′,9′-tetrahydrospiro[cyclopropane-1,7′-pyrimido[4,5-b][1,4]diazepine]-2′-ylamino)-3-methoxy-N-(4-methylpiperazin-1-yl)benzamide], the Ki is below 10 nM.
